Measurements taken from patent US20240408167A1, “COMPOSITION FOR TREATING OCULAR DISEASES CONTAINING PEPTIDE” (Encuragen Inc., priority 2023, published 2024).
Where “and” joins values, the source holds several entries; their conditions need not be identical. Equal entries are not always repeated.

Tests used:
[1] = tested on: mouse experimental dry eye (EDE) model; assay: Tear volume, phenol red thread test, EDE mouse model; assay type: in vivo
Procedure: To confirm the pharmacological effect and appropriate dosage, a pilot study was first conducted with the mice. In addition, a rabbit DED (Dry Eye Disease) model with a large exposed facial area was evaluated in comparison with a mouse model. In the mouse experimental dry eye (EDE) model, scopolamine hydrobromide (Sigma-Aldrich. St. Louis, MO, USA) was subcutaneously injected three times a day (9 a.m., 1:30 p.m., 6 p.m.) in a room exposed to ventilation with an ambient humidity of less than 40% at 25±2° C. to induce DED.
The mice were randomly divided into five groups: (1) EDE (experimental dry eye) control mice without eye drops administration, (2) EDE mice treated with a vehicle (phosphate-buffered saline), (3) EDE mice treated with 0.001% (PEG)-BHD1028 (4) EDE mice treated with 0.01% (PEG)-BHD1028, and (5) EDE mice treated with 0.1% (PEG)-BHD1028. All the treatment groups received 2 μL of eye drops three times a day.
(§1) The tear secretion was measured for 20 seconds by contacting a cotton thread containing phenol red (Zone-Quick™; Oasis Medical, Inc., Glendora, CA, USA) to the conjunctival sac on the lateral canthus of the mouse eye. After measuring the length using a Nikon SMZ1500 microscope, the length substituted to the prescribed formula, and the value was converted to volume. The tear production of the rabbits was measured by a modified Schirmer tear test using Whatman 41 filter paper strips (Tianjin Jingming New Technology Development Co., Ltd., Tianjin, China) on Day 0, Day 5, and Day 10. Eye examination of the rabbits was performed under anesthesia. The anesthesia was performed under sedation by performing intramuscular injection of xylazine (3 mg/kg, Rompun®; Bayer Korea, Korea) and intramuscular injection of 10 mg/kgtiletamine/zolazepam (Zoletil®, Virbac Laboratories, Carros, France). After adding 1 drop of proparacaine HCl 0.5% (Alcaine®, Alcon Korea Ltd., Seoul, Korea), excess tears and eye drops were removed with Weck-cel® […]. The wet length (mm) of the paper strip was read after 5 minutes.
The tear volume of the mice was measured using the Phenol Red Thread (PRT) test on Day 5 and Day 10 after the treatment.

rabbit DED model [2] = assay: Schirmer tear test (STT), rabbit DED model; assay type: in vivo
Procedure: (§2) The rabbit DED model was induced by locally administrating 0.1% benzalkoniumchloride (BAC) drops (Sigma, St. Louis, MO, USA) twice a day (8 a.m. and 4 p.m.). Before the BAC treatment, the control group (baseline, naive) underwent standard dry eye clinical tests such as the Schirmer tear test (STT), TBUT, and corneal staining score (CSS) test. After the BAC treatment, the induction of dry eye syndrome was confirmed, and the test substance was administered for 10 days while maintaining the induction of dry eye syndrome. […] The test substance was locally applied bis in die (BID) to both eyes.
as §1

rabbit DED model [3] = assay: Corneal fluorescein staining (CFS) score, rabbit DED model; assay type: in vivo; settings: for dynamic slope of the CFS score change: from Day 1 to Day 10
Procedure: as §2
The subjects were evaluated by corneal staining, and the abnormal findings of the eyelids, cornea, and conjunctiva were recorded. After dropping 1 μL of the 1% fluorescent dye solution and washing with saline solution, and the cornea was observed under a slit-lamp microscope and scored to evaluate the degree of epithelial damage (degree of fluorescent staining).

CD4+IFN-γ+T cell = CD4+IFN-γ+T cell density by flow cytometry, EDE mouse model; assay type: in vivo
Procedure: The cornea, conjunctiva, and each tissue required for analysis were excised with scissors, incised, and shaken with 0.5 mg/mL collagenase type D at 37° C. for 1 hour. After pulverizing the tissue, the resulting mixture was passed through a cell strainer, centrifuged, and resuspended in phosphate-buffered saline containing 1% bovine serum albumin.
In DED, corneal barrier destruction and epithelial cell loss are accompanied by bone marrow and T cell infiltration. Activated T lymphocytes are the primary producers of Th-1 cytokines and interferon (IFN)-γ, which promote cell death at the ocular surface. To evaluate the anti-inflammatory effect of (PEG)-BHD1028 in the EDE mouse model, immune cells that play the role of inflammatory cell surface markers were quantified by flow cytometry with one animal per group.

[4] = Osmotic pressure of trehalose-mannitol composite formulations; assay type: physicochemical; settings: trehalose-mannitol composite formulation
Procedure: The osmotic pressure of the trehalose-only formulations according to the (PEG)-BHD1028 content (see Table 5) and the osmotic pressure of the trehalose-mannitol composite formulations according to the (PEG)-BHD1028 content (see Table 6) were measured, and reflecting the experimental results, the osmolarity including the 0.5% (PEG)-BHD1028 concentration was adjusted to about 300 mOsm/kg.

[5] = rabbit, 0.1% group, Baseline (before BAC treatment)
[6] = rabbit, 0.1% group, Day 0 (EDE), before treatment
[7] = rabbit, 0.2% group, Baseline (before BAC treatment)
[8] = rabbit, 0.2% group, Day 0 (EDE), before treatment
[9] = rabbit, 0.4% group, Baseline (before BAC treatment)
[10] = rabbit, 0.4% group, Day 0 (EDE), before treatment

Substance: NH2-Tyr-Tyr-Phe-Ala-Tyr-His-Pro-Asn-Ile-Pro-Gly-Leu-Tyr-Tyr-Phe-COOH (H-YYFAYHPNIPGLYYF-OH; also: PEGylated, site not given here (mPEG), acetate salt) [(PEG)-BHD1028]
- Tear volume ([1]; 0.001% eye drops three times a day, Day 5): 0.024 ± 0.003 µL
- Tear volume ([1]; 0.001% eye drops three times a day, Day 10): 0.021 ± 0.002 µL
- Tear volume ([1]; 0.01% eye drops three times a day, Day 5): 0.026 ± 0.003 µL
- Tear volume ([1]; 0.01% eye drops three times a day, Day 10): 0.027 ± 0.003 µL
- Tear volume ([1]; 0.1% eye drops three times a day, Day 5): 0.028 ± 0.002 µL
- Tear volume ([1]; 0.1% eye drops three times a day, Day 10): 0.032 ± 0.004 µL
- STT-2 (rabbit DED model [2]; rabbit DED, 0.1% BID, Day 5): 4.67 ± 0.65 mm
- STT-2 (rabbit DED model [2]; rabbit DED, 0.1% BID, Day 10): 6.50 ± 0.87 mm
- STT-2 (rabbit DED model [2]; rabbit DED, 0.2% BID, Day 5): 3.33 ± 0.51 mm
- STT-2 (rabbit DED model [2]; rabbit DED, 0.2% BID, Day 10): 7.50 ± 0.99 mm
- STT-2 (rabbit DED model [2]; rabbit DED, 0.4% BID, Day 5): 4.33 ± 0.45 mm
- STT-2 (rabbit DED model [2]; rabbit DED, 0.4% BID, Day 10): 6.67 ± 1.02 mm
- STT-2 (rabbit DED model [2]; [5]): 6.67 ± 0.96 mm
- STT-2 (rabbit DED model [2]; [6]): 3.00 ± 1.22 mm
- STT-2 (rabbit DED model [2]; [7]): 8.50 ± 1.39 mm
- STT-2 (rabbit DED model [2]; [8]): 3.33 ± 1.28 mm
- STT-2 (rabbit DED model [2]; [9]): 9.17 ± 1.23 mm
- STT-2 (rabbit DED model [2]; [10]): 3.33 ± 1.22 mm
- CFS (rabbit DED model [3]; rabbit DED, 0.1% BID, Day 5): 7.17 ± 1.21 score
- CFS (rabbit DED model [3]; rabbit DED, 0.1% BID, Day 10): 6.67 ± 0.56 score
- CFS (rabbit DED model [3]; rabbit DED, 0.2% BID, Day 5): 6.83 ± 0.64 score
- CFS (rabbit DED model [3]; rabbit DED, 0.2% BID, Day 10): 6.17 ± 0.55 score
- CFS (rabbit DED model [3]; rabbit DED, 0.4% BID, Day 5): 5.67 ± 0.38 score
- CFS (rabbit DED model [3]; rabbit DED, 0.4% BID, Day 10): 3.83 ± 0.64 score
- CFS (rabbit DED model [3]; [5]): 0.00 ± 0.00 score
- CFS (rabbit DED model [3]; [6]): 6.67 ± 0.30 score
- CFS (rabbit DED model [3]; [7]): 0.00 ± 0.00 score
- CFS (rabbit DED model [3]; [8]): 9.17 ± 0.37 score
- dynamic slope of the CFS score change (rabbit DED model [3]; rabbit, 0.2%): −0.42
- CFS (rabbit DED model [3]; [9]): 0.00 ± 0.00 score
- CFS (rabbit DED model [3]; [10]): 8.00 ± 0.62 score
- mean CFS score lower than that of the 0.05% cyclosporine treated animals (rabbit DED model [3]; rabbit, 0.4%, Day 10, p=0.0558): approximately 46%
- dynamic slope of the CFS score change (rabbit DED model [3]; rabbit, 0.4%): −0.33
- CD4+IFN-γ+T cell density (CD4+IFN-γ+T cell; conjunctiva, 0.001%): 18.96%
- CD4+IFN-γ+T cell density (CD4+IFN-γ+T cell; conjunctiva, 0.01%): 15.31%
- CD4+IFN-γ+T cell density (CD4+IFN-γ+T cell; conjunctiva, 0.1%): 9.91%
- CD4+IFN-γ+T cell density (CD4+IFN-γ+T cell; cornea, 0.001%): 18.62%
- CD4+IFN-γ+T cell density (CD4+IFN-γ+T cell; cornea, 0.01%): 16.78%
- CD4+IFN-γ+T cell density (CD4+IFN-γ+T cell; cornea, 0.1%): 11.66%
- CD4+IFN-γ+T cell density (CD4+IFN-γ+T cell; lacrimal gland, 0.001%): 18.45%
- CD4+IFN-γ+T cell density (CD4+IFN-γ+T cell; lacrimal gland, 0.01%): 14.60%
- CD4+IFN-γ+T cell density (CD4+IFN-γ+T cell; lacrimal gland, 0.1%): 10.70%
- osmotic pressure, Mean ([4]; 0.5%): 301.00 mOsm/kg
- osmotic pressure, single measurements #1-#3 ([4]; 0.5%): 301 mOsm/kg and 399 mOsm/kg and 303 mOsm/kg
- osmotic pressure, Mean ([4]; 1.5%): 309.33 mOsm/kg
- osmotic pressure, single measurements #1-#3 ([4]; 1.5%): 309 mOsm/kg and 312 mOsm/kg and 307 mOsm/kg
- osmotic pressure, Mean ([4]; 4.5%): 338.33 mOsm/kg
- osmotic pressure, single measurements #1-#3 ([4]; 4.5%): 338 mOsm/kg and 339 mOsm/kg
